# Measurements taken from paper PMC4441592 (Neuron, 2015).
# Tests used:
# KOR = KOR (Homo sapiens, UniProt P41145); assay: cell-based
# KORD (D138N hKOR) = KORD (D138N hKOR) (Homo sapiens, UniProt P41145, D138N); assay: cell-based
# CNS molecular targets = assay: NIMH Psychoactive Drug Screening Program profiling; conditions: NIMH PDSP; except low KOR binding affinity
# [1] = system: muscarinic receptor- based DREADDs (Gq, Gi and Gs DREADDs); assay: Activity at muscarinic receptor-based DREADDs; format: cell-based
# mice [2] = conditions: mouse, in vivo
# E297A mutant = E297A mutant (Homo sapiens, UniProt P41145, E297A); assay: Affinity and agonist potency at E297A KOR mutant; format: cell-based; conditions: E297A mutant alone
# Chain of E297A mutant (P41145 whole entry E297A): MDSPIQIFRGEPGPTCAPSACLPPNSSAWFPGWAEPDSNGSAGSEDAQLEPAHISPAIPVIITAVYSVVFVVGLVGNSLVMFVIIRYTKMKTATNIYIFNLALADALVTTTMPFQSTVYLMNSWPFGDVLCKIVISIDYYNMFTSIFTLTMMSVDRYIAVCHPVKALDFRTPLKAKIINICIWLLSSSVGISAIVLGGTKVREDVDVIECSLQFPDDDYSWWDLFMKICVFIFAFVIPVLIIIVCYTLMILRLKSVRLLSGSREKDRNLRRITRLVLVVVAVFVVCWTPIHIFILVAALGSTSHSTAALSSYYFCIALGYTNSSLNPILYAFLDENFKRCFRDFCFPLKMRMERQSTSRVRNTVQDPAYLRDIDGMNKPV
# VTA/SN neurons = assay: Miniature IPSC recording in VTA/SN neurons; format: cell-based; conditions: naive mice; 100 nM
# [3] = system: VGAT-ires-Cre mice, VTA/SN^VGAT neurons; assay: Locomotor activity; format: in vivo; conditions: mice expressing both KORD and hM3Dq in VTA/SN^VGAT neurons; 10.0 mg/kg; different testing sessions
# [4] = system: SIM1-Cre mice, PVH^SIM1 neurons; assay: Feeding study in SIM1-cre mice; format: in vivo; conditions: wild type control mice injected with cre-dependent KORD virus; 10 mg/kg s.c.
# mice [5] = conditions: mouse, in vivo; remark: listed apart in the source
# C57BL/6J mice = conditions: mouse, in vivo
# Chain of KORD (D138N hKOR) (P41145 whole entry D138N): as the sequence (P41145 whole entry E297A) above, with D138N, A297E counted along it
# Chain of KOR (P41145 whole entry): as the sequence (P41145 whole entry E297A) above, with A297E counted along it
structure (smiles),measurement,setting,value
"COC(=O)[C@@H]1C[C@H](O)C(=O)[C@H]2[C@@]1(C)CC[C@H]1C(=O)O[C@H](c3ccoc3)C[C@]21C [Salvinorin B, salvinorin B]",Emax,KOR,80%
same,Emax (%),KOR,100%
same,Emax,KORD (D138N hKOR),94%
same,Emax (%),KORD (D138N hKOR),100%
same,activity against a large number of CNS molecular targets,CNS molecular targets,failed to show any activity
same,activity at muscarinic receptor-based DREADDs,[1],inactive
same,hot plate test effect (analgesia),mice [2],did not alter performance relative to controls
same,effect of E297A mutation on agonist potency,E297A mutant,no effect on SALB agonist potency
same,mIPSCs (frequency and amplitude),VTA/SN neurons,no effect
same,locomotor activity vs vehicle,[3],enhanced locomotor activity
same,feeding effect,[4],no feeding effects
same,rotarod test effect (impairment of motor performance),mice [5],did not alter performance relative to controls
same,brain stimulation reward thresholds (ICSS),C57BL/6J mice,failed to significantly elevate thresholds
